The record followed here is PMC7718943, “In silico molecular target prediction unveils mebendazole as a potent MAPK14 inhibitor” (Molecular Oncology, 2020).

Like-named read-outs stand apart in the source and are kept apart here.

In one assay the target is T1, MAPK14 (MAPK14/p38α) (Homo sapiens, UniProt Q16539).
T1 construct: commercial enzyme of Promega kinase assay
The experiment in a line: ADP-Glo kinase assay. The format is biochemical. The conditions noted are these: read-out: IC50 value (μM) ± SD / MAPK14. For orientation: In ADP-Glo the light output rises with the ADP produced.

A further assay has as its target T2, ERK2 (MAPK1) (Homo sapiens, UniProt P28482).
T2 construct: commercial enzyme of Promega kinase assay
The assay can be described thus: ADP-Glo kinase assay. The format is biochemical. The conditions noted are these: read-out: IC50 value (μM) ± SD / ERK2. An excerpt:
ADP-Glo kinase assay on ERK2 (MAPK1)

Another assay addresses T3, ABL1 (Homo sapiens, UniProt P00519).
T3 construct: commercial enzyme of Promega kinase assay
The experiment in a line: ADP-Glo kinase assay. The format is biochemical.

For assay [1], the target named is T4, MAPK14 (wild-type, His-tagged, pET28a) (Homo sapiens, UniProt Q16539).
T4 construct: wild type, pET28a vector, His tag conserved for ITC and TSA
T4 sequence (Q16539 whole entry): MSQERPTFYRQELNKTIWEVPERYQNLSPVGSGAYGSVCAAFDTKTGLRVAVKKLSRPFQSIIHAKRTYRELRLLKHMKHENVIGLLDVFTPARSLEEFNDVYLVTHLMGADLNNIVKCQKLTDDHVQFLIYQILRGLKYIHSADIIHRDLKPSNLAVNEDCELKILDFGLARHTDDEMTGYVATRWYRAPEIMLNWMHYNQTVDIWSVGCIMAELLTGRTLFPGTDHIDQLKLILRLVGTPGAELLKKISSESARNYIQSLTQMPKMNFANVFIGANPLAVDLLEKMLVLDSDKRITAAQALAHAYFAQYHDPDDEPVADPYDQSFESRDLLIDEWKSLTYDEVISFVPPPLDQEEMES
The assay can be described thus: isothermal titration calorimetry. The format is binding. (In ITC the heat of successive injections is recorded.)

Assay [2] has as its target T4, MAPK14 (wild-type, His-tagged, pET28a). The assay can be described thus: fluorescence thermal shift assay. The format is binding. As to conditions: read-out: dTm.
The mark [3] stands for this setting: read-out: IC50 value (μM) ± SD / ABL1.

T1 sequence (Q16539 2-360): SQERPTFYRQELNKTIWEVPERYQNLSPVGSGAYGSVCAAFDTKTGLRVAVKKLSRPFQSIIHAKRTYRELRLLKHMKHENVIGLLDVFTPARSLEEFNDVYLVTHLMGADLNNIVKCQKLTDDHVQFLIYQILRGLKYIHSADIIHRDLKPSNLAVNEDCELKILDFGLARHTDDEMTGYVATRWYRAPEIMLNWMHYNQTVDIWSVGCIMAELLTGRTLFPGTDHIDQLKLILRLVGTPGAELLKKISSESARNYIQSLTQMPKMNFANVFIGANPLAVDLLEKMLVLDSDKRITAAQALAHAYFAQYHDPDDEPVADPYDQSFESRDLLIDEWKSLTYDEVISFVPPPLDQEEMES
T3 sequence (P00519 whole entry): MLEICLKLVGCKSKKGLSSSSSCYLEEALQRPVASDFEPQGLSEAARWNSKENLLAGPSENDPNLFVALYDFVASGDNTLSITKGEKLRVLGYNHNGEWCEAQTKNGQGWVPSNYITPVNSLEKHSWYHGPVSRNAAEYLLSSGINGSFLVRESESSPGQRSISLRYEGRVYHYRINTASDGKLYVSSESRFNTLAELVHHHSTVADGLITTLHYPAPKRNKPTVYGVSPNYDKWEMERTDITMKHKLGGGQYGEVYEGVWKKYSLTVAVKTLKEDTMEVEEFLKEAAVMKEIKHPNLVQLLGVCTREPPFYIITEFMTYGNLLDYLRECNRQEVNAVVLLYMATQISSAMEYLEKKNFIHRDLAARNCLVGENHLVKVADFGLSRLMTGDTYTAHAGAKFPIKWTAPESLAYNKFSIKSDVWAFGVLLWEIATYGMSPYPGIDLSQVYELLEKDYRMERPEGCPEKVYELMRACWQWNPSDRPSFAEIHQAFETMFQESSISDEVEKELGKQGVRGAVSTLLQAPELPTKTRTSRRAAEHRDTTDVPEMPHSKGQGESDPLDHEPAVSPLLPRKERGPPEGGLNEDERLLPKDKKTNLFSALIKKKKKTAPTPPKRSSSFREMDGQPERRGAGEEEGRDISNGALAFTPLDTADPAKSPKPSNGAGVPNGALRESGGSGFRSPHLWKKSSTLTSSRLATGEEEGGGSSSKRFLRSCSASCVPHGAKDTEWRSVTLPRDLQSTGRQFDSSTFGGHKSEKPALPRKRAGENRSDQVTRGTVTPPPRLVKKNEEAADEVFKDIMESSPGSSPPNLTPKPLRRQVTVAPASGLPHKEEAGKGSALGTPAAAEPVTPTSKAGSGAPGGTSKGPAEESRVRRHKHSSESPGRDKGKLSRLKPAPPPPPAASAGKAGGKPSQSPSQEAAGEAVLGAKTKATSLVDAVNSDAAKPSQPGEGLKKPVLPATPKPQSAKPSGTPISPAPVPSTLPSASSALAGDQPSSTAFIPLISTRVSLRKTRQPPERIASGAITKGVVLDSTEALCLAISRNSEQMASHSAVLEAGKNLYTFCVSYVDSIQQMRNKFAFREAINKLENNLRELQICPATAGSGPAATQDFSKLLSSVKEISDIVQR
T2 sequence (P28482 2-360): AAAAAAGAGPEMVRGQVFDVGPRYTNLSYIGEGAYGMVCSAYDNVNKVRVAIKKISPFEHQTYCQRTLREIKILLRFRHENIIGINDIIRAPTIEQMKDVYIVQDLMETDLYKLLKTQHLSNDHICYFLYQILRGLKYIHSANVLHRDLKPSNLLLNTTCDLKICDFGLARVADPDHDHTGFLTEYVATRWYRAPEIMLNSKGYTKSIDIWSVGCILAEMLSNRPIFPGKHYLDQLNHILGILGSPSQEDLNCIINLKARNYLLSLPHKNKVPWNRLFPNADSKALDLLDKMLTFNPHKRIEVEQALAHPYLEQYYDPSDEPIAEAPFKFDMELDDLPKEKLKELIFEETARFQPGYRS

As to `CCCSc1ccc2nc(NC(=O)OC)[nH]c2c1` [Albendazole], the IC50 on MAPK14 (MAPK14/p38α) is more than 50 µM; at ERK2 (MAPK1), 3.4 ± 1.5 µM; at ABL1 (setting [3]) it was 0.9 ± 0.6 µM.
As to `COC(=O)Nc1nc2ccc(Sc3ccccc3)cc2[nH]1` [Fenbendazole], the IC50 is 10.7 ± 4.9 µM on MAPK14 (MAPK14/p38α), more than 50 µM on ERK2 (MAPK1) and 0.19 ± 0.07 µM on ABL1 (setting [3]).
In the same order, the values of `COC(=O)Nc1nc2cc(C(=O)c3ccc(F)cc3)ccc2[nH]1` [Flubendazole] are 5.5 ± 2.7 µM, 15.9 ± 8 µM and 0.11 ± 0.05 µM.
What is called Kd is the equilibrium constant for the complex coming apart. Regarding `COC(=O)Nc1nc2ccc(C(=O)c3ccccc3)cc2[nH]1` [Mebendazole], the Kd in assay [1] amounted to 1270 ± 20 nM. The IC50 turned out to be 24.7 ± 10.4 µM on ERK2 (MAPK1) and 0.35 ± 0.12 µM on ABL1 (setting [3]). In assay [2], the ΔTm at 50 µM amounted to 3.7 °C.
In the case of `COC(=O)Nc1nc2ccc(C(=O)c3cccs3)cc2[nH]1` [Nocodazole], the results for the IC50 at MAPK14 (MAPK14/p38α), on ERK2 (MAPK1) and on ABL1 (read-out: IC50) were 2.8 ± 5.6 µM, 26.9 ± 16.2 µM and 0.078 ± 0.034 µM, respectively.
